Values of other authors in patent US9226893B2, “Method for storing silica-based material, package produced with the method and use of package for packaging of silica-based products” (DelSiTech Oy, priority 2006, dated 2016).

lysozyme: Lysozyme released from sol-gel derived silica gel (literature, Wilson et al.)
activity of released lysozyme (gel let to dry and age simultaneously, within few weeks): substantially reduced
amount of biologically active lysozyme relative to total amount of released lysozyme (silica gel which had not dried, with or without protective agent): ~100%
